The values below come from patent US7709492B2, “Pyrazolo-[4,3-e]-1,2,4-triazolo-[1,5-c]-pyrimidine adenosine A2a receptor antagonists” (Schering Corporation, priority 2004, dated 2010).

The target in this test is T1, Human A2a Adenosine Receptor (Homo sapiens, UniProt P29274).
T1 construct: purchased Receptor Biology, Inc., Beltsville, Md; RB-HA2a
The test can be described thus: Human adenosine A2a receptor competition binding assay. Particulars: [3H]-SCH 58261 displacement, human A2a membranes. Here is the method:
Human Adenosine A2a and A1 Receptor Competition Binding Assay Protocol
A2a: Human A2a Adenosine Receptor membranes, Catalog #RB-HA2a, Receptor Biology, Inc., Beltsville, Md. Dilute to 17 μg/100 μl in membrane dilution buffer (see below).
Membrane dilution buffer: Dulbecco's Phosphate Buffered Saline (Gibco/BRL)+10 mM MgCl2.
Compound Dilution Buffer: Dulbecco's Phosphate Buffered Saline (Gibco/BRL)+10 mM MgCl2 supplemented with 1.6 mg/ml methyl cellulose and 16% DMSO. Prepared fresh daily.
A2a: [3H]-SCH 58261, custom synthesis, AmershamPharmacia Biotech, Piscataway, N.J. Stock is prepared at 1 nM in membrane dilution buffer. Final assay concentration is 0.5 nM.
A2a: To determine non-specific binding, add 100 nM CGS 15923 (RBI, Natick, Mass.). Working stock is prepared at 400 nM in compound dilution buffer.
Prepare 1 mM stock solutions of compounds in 100% DMSO. Dilute in compound dilution buffer. Test at 10 concentrations ranging from 3 μM to 30 pM. Prepare working solutions at 4× final concentration in compound dilution buffer.
Perform assays in deep well 96 well plates. Total assay volume is 200 μl. Add 50 μl compound dilution buffer (total ligand binding) or 50 μl CGS 15923 working solution (A2a non-specific binding) or 50 μl, NECA working solution (A1 non-specific binding) or 50 μl of drug working solution. Add 50 μl ligand stock ([3H]-SCH 58261 for A2a, [3H]-DPCPX for A1). […]

Molecules are shown by their SMILES.

T1 sequence (P29274 whole entry): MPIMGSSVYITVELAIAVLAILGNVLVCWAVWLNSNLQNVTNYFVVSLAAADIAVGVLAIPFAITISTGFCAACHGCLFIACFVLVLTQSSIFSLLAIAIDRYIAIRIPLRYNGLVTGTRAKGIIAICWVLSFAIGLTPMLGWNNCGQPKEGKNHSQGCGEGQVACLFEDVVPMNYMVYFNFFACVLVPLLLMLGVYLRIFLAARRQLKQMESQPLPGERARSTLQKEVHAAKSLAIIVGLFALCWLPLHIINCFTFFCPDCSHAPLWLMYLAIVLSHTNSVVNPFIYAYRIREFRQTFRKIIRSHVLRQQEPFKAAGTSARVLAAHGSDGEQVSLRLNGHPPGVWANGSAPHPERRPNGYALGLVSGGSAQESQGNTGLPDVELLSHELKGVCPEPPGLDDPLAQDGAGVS

For the compound `Nc1nc2c(cnn2CCN2CCN(c3cc(-c4ncco4)ccc3F)CC2)c2nc(-c3ccccn3)nn12` [Example 12-31], the Ki is 0.3 nM. This counts as sub-nanomolar.
